By solubility is commonly meant the concentration that dissolves in the medium under given conditions.

Results on 20 molecules are retold here after US10424806B2, “Organic non-aqueous cation-based redox flow batteries” (UCHICAGO ARGONNE, LLC, priority 2012, dated 2019).

The nature of data set [1]: Cyclic voltammetry in Pt/Na/Na cell with sodium electrolyte. Type of data set: physicochemical. As to conditions: NaPF6 in propylene carbonate. How it is done:
The redox materials described herein also can be utilized with sodium-based electrolyte salts. For example, FIG. 22(a) provides a cyclic voltammogram obtained with about 17 mM DBBB in 0.247 M Na PF6 in propylene carbonate, in a Pt/Na/Na cell at scan rates of 5, 20, 50, and 100 mV/s. FIG. 22(b) provides a cyclic voltammogram obtained with about 13 mM 2,3,6-trimethylquinoxaline in 0.217 M NaPF6 in propylene carbonate at a 20 mV/s scan rate.

The nature of data set [2]: Solubility in solvent or electrolyte. It counts as physicochemical.
Data set [3] is described as follows: Cyclic voltammetry in Pt/Li/Li three-electrode cell. It counts as physicochemical. As to conditions: for redox properties from cyclic voltammogram: lithium electrolyte and concentration differ per compound; for performance compared with quinoxaline: 0.005 M in Electrolyte B; for Potential: 10 mM in 1.2 M LiPF6 in EC/EMC (3:7 by weight), Pt/Li/Li. How it is done:
The upper and lower redox potentials shown in FIG. 5 were determined by a combination of average peak potential and graphical analysis of the cyclic voltammograms over a range of scan rates (5, 10, 20, 50, 100, and 200 mV/s).
Cyclic voltammetry (CV) were performed in a custom-made airtight three-electrode electrochemical cell with a 2-mm diameter platinum disk working electrode and lithium metal counter and reference electrodes. Prior to use, the platinum disk electrode was dipped in nitric acid solution (about 50 vol % HNO3, Ricca Chemical Company) and then polished on a MICROCLOTH® pad with 0.3 μm and 0.05 μm alumina (Buehler Ltd., Lake Bluff, Ill.). After polishing, the electrode was thoroughly rinsed with distilled water and dried with house nitrogen. The electrochemical cell was then assembled in an Argon-filled glove box and transferred out to perform measurements. […] All evaluations were performed in triplicate at room temperature.
The redox potential of DBBB was calculated by averaging the oxidation and reduction peak potentials in the two different electrolytes at various scan rates (5, 10, 20, 50, 100, and 200 mV/s). […] The shift in the peak potential with the scan rate may be caused by the limited charge-transfer kinetics of the active species (DBBB) and the uncompensated resistance, which is commonly called the “iR drop”. Because the polarization from the kinetic effect and iR drop is triggered by the current flowing through the electrochemical cell, the average peak potential [(Epa+Epc)/2] gives a good estimation of the redox potential of the reversible electroactive species. […] Evaluations were performed in triplicate in a Pt/Li/Li cell at room temperature.

For data set [4] the following is noted: Li-ion cell, 100% overcharge; cited from earlier work.
The nature of data set [5]: Diffusion coefficient from Randle-Sevcik measurements. It counts as physicochemical. How it is done: 2,5-Di-tert-butyl-1,4-bis(2-methoxyethoxy)benzene (“DBBB”) is a redox material developed at Argonne National Laboratory for overcharge protection in Li-ion batteries. […] The diffusion coefficient of DBBB was determined to be about 1.30×10^−6 cm^2/s in the battery electrolyte based on Randle-Sevcik measurements. However, Electrolyte A is non-ideal for flow battery applications due to high volatility, extreme moisture sensitivity, and high materials cost. Thus, an electrolyte consisting of 0.2 M LiBF4 in propylene carbonate (“Electrolyte B”) was also investigated as a more robust and lower cost alternative. FIG. 2b show iR-corrected cyclic voltammograms of 0.005 M DBBB in Electrolyte A and in Electrolyte B at a scan rate of 20 mV/s. […] Thus, 2,5-di-tert-butyl-1,4-dialkoxybenzene compounds, such as DBBB, are active in different electrolyte systems, and the performance of these materials can be tailored by the choice of the electrolyte composition.

Data set [6] in a line: Intrinsic capacity and energy density (Table 1). It counts as physicochemical. From the text: Table 1 provides a summary of the useful redox properties of these compounds.

Turning to `Cc1ccc2nc(C)c(C)nc2c1` [2,3,6-trimethylquinoxaline], the “redox properties from cyclic voltammogram” value (“redox properties” below) in data set [1] is reported as “suitable reversible redox properties”.

Turning to `Oc1nc2ccccc2nc1O` [2,3-Dihydroxyquinoxaline], the “solubility in electrolyte solution” value in data set [2] (Electrolyte B) is given as “not soluble”.

With `BrCc1nc2ccccc2nc1CBr` [2,3-bis(bromomethyl)quinoxaline], the redox activity entry in data set [3] (Electrolyte B) is recorded as “no redox activity was observed”.

For the molecule `CC(=O)c1cnc2ccccc2n1` [2-Acetylquinoxaline], in data set [3] (Electrolyte B), the redox activity result was “some redox activity”; the “separation of oxidation and reduction events” value is listed as “about 1 V”.

`FC(F)(F)c1cnc2ccccc2n1` [2-trifluoromethylquinoxaline]: the redox activity entry in data set [3] (Electrolyte B) is listed as “no redox activity was observed”.

`CN1c2ccccc2N(C)c2ccccc21` [5,10-dihydro-5,10-dimethylphenazine]: the “redox properties” value in data set [3] (Pt/Li/Li cell) is reported as “suitable redox properties”.

Take `Cc1cccc2nccnc12` [5-methylquinoxaline]: in data set [3] (Pt/Li/Li cell), the “performance compared with quinoxaline” value is “lower activity”.

For the molecule `Cc1cc2nc(-c3ccccn3)c(-c3ccccn3)nc2cc1C` [6,7-dimethyl-2,3-di(2-pyridyl)quinoxaline], the lower redox potential entry in data set [3] (Electrolyte B, Pt/Li/Li cell, average peak potential method) is given as “about 2.6 V”.

For `Cc1ccc2nccnc2c1` [6-methylquinoxaline], the “performance compared with quinoxaline” value in data set [3] (Pt/Li/Li cell) was “slightly better performance than quinoxaline”.

Take `Fc1c(F)c(F)c2c(c1F)OCCO2` [Compound 5]: the “redox properties” value in data set [3] (Pt/Li/Li cell) is “redox properties suitable for use as redox reactants for the positive electrolyte”.

Turning to `Fc1ccc(B2Oc3c(F)c(F)c(F)c(F)c3O2)c(F)c1` [Compound 6], in data set [3] (Pt/Li/Li cell), the “redox properties” value is “redox properties suitable for use as redox reactants for the positive electrolyte”.

On to `Fc1c(F)c(F)c2c(c1F)OB(c1cc(C(F)(F)F)ccc1C(F)(F)F)O2` [Compound 7], for which the “redox properties” value in data set [3] (Pt/Li/Li cell) is reported as “redox properties suitable for use as redox reactants for the positive electrolyte”.

Turning to `Fc1c(F)c(F)c(B2Oc3c(F)c(F)c(F)c(F)c3O2)c(F)c1F` [Compound 8], the “redox properties” value in data set [3] (Pt/Li/Li cell) is “redox properties suitable for use as redox reactants for the positive electrolyte”.

For the molecule `COCCOc1cc(C(C)(C)C)c(OCCOC)cc1C(C)(C)C` [DBBB, 2,5-Di-tert-butyl-1,4-bis(2-methoxyethoxy)benzene], the “potential at which active in overcharge protection” value in data set [4] is recorded as “about 4.0 V vs. Li/Li^+”. Further, in data set [3] (0.005 M in Electrolyte A (1.2 M LiPF6 in EC/EMC 3/7 by volume), room temperature), the “redox potential, average of anodic and cathodic potentials [(Epa+Epc)/2]” value is “about 3.927 V vs. Li/Li^+”. Also, in data set [3] (0.005 M in Electrolyte B (0.2 M LiBF4 in propylene carbonate), room temperature), the redox potential was 4.022 V vs. Li/Li^+. Also, in data set [1], the “redox properties” value is on record as “suitable reversible redox properties”. In addition, the diffusion coefficient entry in data set [5] (Electrolyte A) is “about 1.30×10^−6 cm^2/s”; in data set [5] (Electrolyte B), “about 1.53×10^−6 cm^2/s”.

As to `c1ccc2nccnc2c1` [Quinoxaline], the solubility in data set [2] (organic solvent or mixture, in propylene carbonate) was no less than 2000 mM.

Turning to `COCCOc1c(F)c(F)c(OCCOC)c(F)c1F` [TFBMEB, 1,2,4,5-tetrafluoro-3,6-bis(2-methoxyethoxy)benzene], the Potential in data set [3] was found to be 4.70 V vs. Li/Li. For the same molecule, in data set [6], the “Energy Density” value is given as 422.5 Wh/Kg and the “Intrinsic Capacity” value was determined as 89.9 mAh/g.

For the molecule `CCOc1c(F)c(F)c(OCC)c(F)c1F` [TFDEB, 1,2,4,5-tetrafluoro-3,6-diethoxybenzene], the Potential in data set [3] came to 4.63 V vs. Li/Li. In addition, in data set [6], the “Energy Density” value stood at 520.9 Wh/Kg and the “Intrinsic Capacity” value is 112.5 mAh/g.

Consider `COc1c(F)c(F)c(OC)c(F)c1F` [TFDMB, 1,2,4,5-tetrafluoro-3,6-dimethoxybenzene], for which the Potential in data set [3] was 4.70 V vs. Li/Li. In data set [6], the “Energy Density” value amounted to 599.7 Wh/Kg and the “Intrinsic Capacity” value was found to be 127.6 mAh/g.

Consider `O=C(c1ccccc1)c1ccccc1` [benzophenone], for which the “redox properties” value in data set [3] (Pt/Li/Li cell) is on record as “suitable redox properties”.

With `[Cl-].[Cl-].c1ccc(C[n+]2ccc(-c3cc[n+](Cc4ccccc4)cc3)cc2)cc1` [bis-benzyl-4,4′-bipyridinium dichloride], the “redox properties” value in data set [3] (Pt/Li/Li cell) was “suitable redox properties”.
